Experimental data reported in ChEMBL document CHEMBL1201862, “PubChem BioAssay data set” (2004).
The source made the active and inactive calls.

Columns and labels:
Cytochrome P450 3A4 [1] = biological target: T1, Cytochrome P450 3A4 (Homo sapiens, UniProt P08684); conditions: Potency
Cytochrome P450 2C9 = Cytochrome P450 2C9 (Homo sapiens, UniProt P11712)
Cytochrome P450 2C19 = Cytochrome P450 2C19 (Homo sapiens, UniProt P33261); experiment: Cytochrome panel assay with activity outcomes. Panel member name: p450-cyp2c19 Compounds with AC50 equal or less than 10 uM are considered active; type: functional; conditions: read-out: AC50
Leucine aminopeptidase = biological target: T2, Leucine aminopeptidase (Plasmodium falciparum 3D7, UniProt Q8IL11); experiment: P. falciparum M17LAP inhibitors, primary screen, biochemical, fluorogenic H-Leu-NHMec substrate, 1536-well (AID 1619); type: functional
T2 sequence (Q8IL11 whole entry): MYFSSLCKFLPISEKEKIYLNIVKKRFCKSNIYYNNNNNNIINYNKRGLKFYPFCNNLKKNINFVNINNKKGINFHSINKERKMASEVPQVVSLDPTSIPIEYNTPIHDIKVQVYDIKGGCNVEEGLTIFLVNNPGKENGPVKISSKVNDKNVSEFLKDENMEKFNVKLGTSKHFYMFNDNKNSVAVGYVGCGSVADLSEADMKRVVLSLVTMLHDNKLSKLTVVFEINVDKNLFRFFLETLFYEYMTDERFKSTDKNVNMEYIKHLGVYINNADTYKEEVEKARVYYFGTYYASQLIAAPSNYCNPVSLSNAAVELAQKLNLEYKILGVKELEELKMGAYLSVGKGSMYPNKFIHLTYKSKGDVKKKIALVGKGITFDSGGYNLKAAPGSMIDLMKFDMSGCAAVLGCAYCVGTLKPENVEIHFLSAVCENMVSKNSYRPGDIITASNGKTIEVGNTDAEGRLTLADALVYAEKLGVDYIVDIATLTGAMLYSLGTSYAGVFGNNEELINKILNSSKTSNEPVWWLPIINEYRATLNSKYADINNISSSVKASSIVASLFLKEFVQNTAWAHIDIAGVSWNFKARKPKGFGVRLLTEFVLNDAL

[2] = biological target: T3, RNA-binding protein pos-1 (Caenorhabditis elegans, UniProt G5EF15); experiment: disruptors of C. elegans POS-1 RNA interaction – biochemical, fluorescence polarization, dose response (AID 1964);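 also: purified POS-1 fused to maltose binding protein made in E. coli; potency of compounds blocking POS-1 binding to fluorescent RNA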
T3 sequence (G5EF15 whole entry): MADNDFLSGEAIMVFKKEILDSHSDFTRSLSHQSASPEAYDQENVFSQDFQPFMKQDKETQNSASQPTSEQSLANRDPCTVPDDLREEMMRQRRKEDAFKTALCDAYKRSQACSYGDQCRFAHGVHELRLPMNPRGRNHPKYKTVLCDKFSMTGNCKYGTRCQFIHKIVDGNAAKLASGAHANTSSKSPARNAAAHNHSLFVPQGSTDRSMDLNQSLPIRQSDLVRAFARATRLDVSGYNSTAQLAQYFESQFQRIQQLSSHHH

[3] = biological target: T4, Zinc finger protein mex-5 (Caenorhabditis elegans, UniProt Q9XUB2); experiment: potency of MEX-5 RNA-binding blockers – biochemical, C. elegans, fluorescence polarization, dose response (AID 1960)
T4 sequence (Q9XUB2 whole entry): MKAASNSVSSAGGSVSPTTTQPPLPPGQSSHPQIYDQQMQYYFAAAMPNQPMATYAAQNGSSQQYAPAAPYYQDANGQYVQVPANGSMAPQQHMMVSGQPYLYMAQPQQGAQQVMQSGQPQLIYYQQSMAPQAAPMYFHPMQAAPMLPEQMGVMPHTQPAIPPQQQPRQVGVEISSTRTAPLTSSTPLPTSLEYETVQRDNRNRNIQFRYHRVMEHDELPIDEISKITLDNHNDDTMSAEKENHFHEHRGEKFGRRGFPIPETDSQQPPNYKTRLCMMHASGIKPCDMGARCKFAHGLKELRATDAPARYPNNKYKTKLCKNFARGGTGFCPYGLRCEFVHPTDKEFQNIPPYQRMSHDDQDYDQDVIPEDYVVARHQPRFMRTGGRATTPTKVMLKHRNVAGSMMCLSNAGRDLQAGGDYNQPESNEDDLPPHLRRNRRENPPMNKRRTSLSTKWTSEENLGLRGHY

Cytochrome P450 3A4 [4] = biological target: T1, Cytochrome P450 3A4
Cytochrome P450 2D6 = Cytochrome P450 2D6 (Homo sapiens, UniProt P10635);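 also: CYP2D6 member of a cytochrome P450 panel assay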
Aminopeptidase N = biological target: T5, Aminopeptidase N (Plasmodium falciparum FcB1/Columbia, UniProt O96935); experiment: malaria alanyl aminopeptidase activity blockers – biochemical, fluorogenic H-Leu-NHMec substrate, 1536-well (AID 1445); parameters: species or system Plasmodium falciparum 3D7, 3D7
T5 sequence (O96935 whole entry): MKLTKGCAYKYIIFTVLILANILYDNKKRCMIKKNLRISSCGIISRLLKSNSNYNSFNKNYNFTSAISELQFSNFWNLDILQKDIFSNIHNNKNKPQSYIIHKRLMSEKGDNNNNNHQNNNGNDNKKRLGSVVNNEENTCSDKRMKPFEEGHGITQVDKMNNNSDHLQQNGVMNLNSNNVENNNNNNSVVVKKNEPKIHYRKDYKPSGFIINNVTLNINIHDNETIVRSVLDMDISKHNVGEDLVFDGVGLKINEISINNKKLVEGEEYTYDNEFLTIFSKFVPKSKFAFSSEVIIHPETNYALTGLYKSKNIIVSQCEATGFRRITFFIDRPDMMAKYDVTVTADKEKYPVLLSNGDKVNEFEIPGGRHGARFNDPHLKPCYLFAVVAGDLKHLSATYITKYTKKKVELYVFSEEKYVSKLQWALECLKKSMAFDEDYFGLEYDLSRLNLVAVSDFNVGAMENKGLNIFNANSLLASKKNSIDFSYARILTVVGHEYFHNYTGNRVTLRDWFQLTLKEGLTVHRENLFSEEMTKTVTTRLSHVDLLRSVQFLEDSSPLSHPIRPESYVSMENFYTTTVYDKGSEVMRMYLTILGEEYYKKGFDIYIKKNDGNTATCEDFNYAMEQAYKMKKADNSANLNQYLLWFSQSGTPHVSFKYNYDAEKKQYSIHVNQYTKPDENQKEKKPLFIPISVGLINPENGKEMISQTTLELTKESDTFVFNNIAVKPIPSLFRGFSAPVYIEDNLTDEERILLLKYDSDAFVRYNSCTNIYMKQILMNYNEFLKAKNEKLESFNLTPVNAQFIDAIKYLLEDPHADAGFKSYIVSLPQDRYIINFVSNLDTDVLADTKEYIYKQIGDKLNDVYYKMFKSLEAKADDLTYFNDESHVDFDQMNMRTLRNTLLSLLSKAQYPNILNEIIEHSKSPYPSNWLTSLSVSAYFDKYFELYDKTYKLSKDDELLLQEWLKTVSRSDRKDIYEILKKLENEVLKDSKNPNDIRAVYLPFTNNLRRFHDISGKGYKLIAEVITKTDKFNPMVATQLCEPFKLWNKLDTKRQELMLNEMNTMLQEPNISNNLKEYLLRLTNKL

[5] = viability of PTEN-deleted HCT116 cells – cell-based, HCT116 PTEN knockout, dose response (AID 1047); type: functional;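 also: HCT116 colon tumor cells with PTEN knocked out; cells exposed to compound for 60 hours before readout; potency for loss of cell viability measured by luminescence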
[6] = viability of HCT116 lacking mutant beta-catenin – cell-based, human colon tumor, dose response (AID 1045); type: functional;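 also: HCT116 colon tumor cells with beta catenin knocked out; cells exposed to compound for 60 hours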
Cytochrome P450 1A2 = biological target: T6, Cytochrome P450 1A2 (Homo sapiens, UniProt P05177);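 also: PubChem cytochrome P450 panel assay, CYP1A2 panel member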
T6 sequence (P05177 whole entry): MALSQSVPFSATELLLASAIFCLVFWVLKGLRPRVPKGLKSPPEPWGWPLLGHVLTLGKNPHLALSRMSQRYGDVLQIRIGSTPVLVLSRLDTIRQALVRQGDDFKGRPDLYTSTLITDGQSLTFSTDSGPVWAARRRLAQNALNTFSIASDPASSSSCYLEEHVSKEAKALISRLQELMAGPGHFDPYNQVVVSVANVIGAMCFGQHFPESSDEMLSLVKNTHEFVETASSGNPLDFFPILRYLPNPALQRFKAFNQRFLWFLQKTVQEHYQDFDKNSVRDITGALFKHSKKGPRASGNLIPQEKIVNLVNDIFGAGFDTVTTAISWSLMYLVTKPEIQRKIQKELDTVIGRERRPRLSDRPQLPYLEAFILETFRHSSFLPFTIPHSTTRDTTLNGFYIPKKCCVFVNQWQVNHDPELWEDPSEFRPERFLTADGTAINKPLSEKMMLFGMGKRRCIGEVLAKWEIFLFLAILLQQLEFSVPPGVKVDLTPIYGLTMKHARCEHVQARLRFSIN

Cytochrome P450 2C9, sequence (P11712 whole entry): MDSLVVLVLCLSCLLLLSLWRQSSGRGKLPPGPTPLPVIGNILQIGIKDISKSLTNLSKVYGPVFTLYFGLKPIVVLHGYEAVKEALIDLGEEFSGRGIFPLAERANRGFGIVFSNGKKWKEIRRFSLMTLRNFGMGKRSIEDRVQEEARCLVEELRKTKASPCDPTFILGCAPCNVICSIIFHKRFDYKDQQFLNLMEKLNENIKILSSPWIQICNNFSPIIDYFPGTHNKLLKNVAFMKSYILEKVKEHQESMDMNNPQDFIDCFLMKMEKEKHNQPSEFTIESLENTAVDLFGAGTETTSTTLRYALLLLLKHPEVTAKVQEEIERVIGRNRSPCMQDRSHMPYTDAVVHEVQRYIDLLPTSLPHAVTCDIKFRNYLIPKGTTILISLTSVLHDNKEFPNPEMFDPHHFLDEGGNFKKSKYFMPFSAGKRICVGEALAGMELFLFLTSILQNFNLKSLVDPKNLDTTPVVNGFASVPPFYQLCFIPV
T1 sequence (P08684 whole entry): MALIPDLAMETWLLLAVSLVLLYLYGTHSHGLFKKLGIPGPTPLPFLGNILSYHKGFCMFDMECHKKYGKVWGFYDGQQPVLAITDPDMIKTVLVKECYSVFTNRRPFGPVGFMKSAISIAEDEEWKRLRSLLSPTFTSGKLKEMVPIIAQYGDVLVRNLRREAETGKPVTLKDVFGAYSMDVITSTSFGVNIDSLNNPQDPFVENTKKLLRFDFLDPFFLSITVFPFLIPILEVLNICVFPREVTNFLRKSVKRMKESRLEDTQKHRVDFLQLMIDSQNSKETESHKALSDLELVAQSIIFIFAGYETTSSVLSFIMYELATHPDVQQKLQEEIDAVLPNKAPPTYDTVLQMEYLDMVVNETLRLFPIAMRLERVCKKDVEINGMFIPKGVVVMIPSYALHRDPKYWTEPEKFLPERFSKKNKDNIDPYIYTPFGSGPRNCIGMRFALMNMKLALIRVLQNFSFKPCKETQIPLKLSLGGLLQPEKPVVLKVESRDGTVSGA
Cytochrome P450 2C19, sequence (P33261 whole entry): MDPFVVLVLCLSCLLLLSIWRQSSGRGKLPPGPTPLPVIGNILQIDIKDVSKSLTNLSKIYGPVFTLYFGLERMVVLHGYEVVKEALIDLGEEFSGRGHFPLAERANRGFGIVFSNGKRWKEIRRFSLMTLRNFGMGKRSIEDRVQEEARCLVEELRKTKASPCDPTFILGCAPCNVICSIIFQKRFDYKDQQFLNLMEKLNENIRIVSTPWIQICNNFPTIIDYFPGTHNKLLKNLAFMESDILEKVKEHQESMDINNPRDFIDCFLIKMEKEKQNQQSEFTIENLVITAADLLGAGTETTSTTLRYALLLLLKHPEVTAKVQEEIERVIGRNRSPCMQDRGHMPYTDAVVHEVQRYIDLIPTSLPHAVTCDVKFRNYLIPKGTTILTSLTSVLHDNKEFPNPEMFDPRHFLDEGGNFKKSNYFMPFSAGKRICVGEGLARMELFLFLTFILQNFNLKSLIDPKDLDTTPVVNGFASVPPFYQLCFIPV
Cytochrome P450 2D6, sequence (P10635 whole entry): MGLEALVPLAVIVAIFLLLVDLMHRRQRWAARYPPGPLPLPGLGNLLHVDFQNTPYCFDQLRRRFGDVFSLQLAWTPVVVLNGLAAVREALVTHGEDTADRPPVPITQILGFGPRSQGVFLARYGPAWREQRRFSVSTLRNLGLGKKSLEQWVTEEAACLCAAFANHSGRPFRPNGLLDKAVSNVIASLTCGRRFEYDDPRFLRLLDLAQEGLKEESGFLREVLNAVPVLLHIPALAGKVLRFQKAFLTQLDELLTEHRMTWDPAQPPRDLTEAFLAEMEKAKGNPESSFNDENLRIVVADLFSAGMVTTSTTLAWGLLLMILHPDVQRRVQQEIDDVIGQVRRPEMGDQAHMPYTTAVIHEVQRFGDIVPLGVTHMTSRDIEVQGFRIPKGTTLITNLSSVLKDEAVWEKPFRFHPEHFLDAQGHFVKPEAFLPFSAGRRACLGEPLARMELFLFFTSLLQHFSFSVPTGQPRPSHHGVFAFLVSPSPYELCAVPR

Structure (SMILES): CCN1C(C)=C(C(=O)OC)C(c2ccccc2)N2C(=O)[C@](O)(C(=O)OC)C(c3ccccc3)C(C(C)=O)=C12 (some centres not stated)
- AC50 (Cytochrome P450 3A4 [1]): 3.98 µM (inconclusive)

Structure (SMILES): CC(C)c1c(O)ccc2c1CCC1[C@@](C)(C=O)CCC[C@@]21C (some centres not stated)
- AC50 (Cytochrome P450 3A4 [1]): 31.6 µM (inconclusive)

Structure (SMILES): COc1cccc(Nc2ncc3nc(-c4ccc(F)cc4)c(=O)n(CCC#N)c3n2)c1
- AC50 (Cytochrome P450 2C9): inconclusive

Structure (SMILES): CN(C)S(=O)(=O)c1ccc(NC(=O)c2cc(F)c(F)cc2Cl)cc1
- AC50 (Cytochrome P450 2C19): 17.8 µM (inconclusive)
- AC50 (Cytochrome P450 2C9): inconclusive

Structure (SMILES): O=C(CSc1nnc(-c2ccc(NS(=O)(=O)c3ccccc3)cc2)o1)NCC1CCCO1 (configuration not stated)
- IC50 (Leucine aminopeptidase): 6.04 µM (active)

Structure (SMILES): CN1C(=O)C(=Cc2cn(CC(=O)N3CCCCC3)c3ccccc23)C(=O)N(C)C1=O
- EC50 [2]: > 300 µM (not active)
- EC50 [3]: > 300 µM (not active)

Structure (SMILES): O=C(O)Cn1cc(/C=C2\C(=O)NC(=O)N(c3ccc(F)cc3)C2=O)c2ccccc21
- EC50 [2]: 9.27 µM (active)
- EC50 [3]: 8.21 µM (active)

Structure (SMILES): CC(=O)c1c(O)c(C)c(O)c2c1OC1=CC(=O)C(C(C)=O)C(=O)C12C (configuration not stated)
- AC50 (Cytochrome P450 3A4 [1]): 0.159 µM (inconclusive)

Structure (SMILES): COc1ccccc1CN1C(=O)c2ccncc2C1=O
- AC50 (Cytochrome P450 3A4 [4]): 11.2 µM (inconclusive)
- AC50 (Cytochrome P450 2C9): inconclusive

Structure (SMILES): Cc1ccc(C2c3sc(=O)[nH]c3SC3C(=O)NC(=O)C32)cc1 (configuration not stated)
- EC50 [2]: > 300 µM (inconclusive)
- EC50 [3]: 6.53 µM (inconclusive)

Structure (SMILES): Cc1ccc(OCCCOc2cccc3cccnc23)cc1C
- AC50 (Cytochrome P450 2D6): 17.8 µM (inconclusive)
- AC50 (Cytochrome P450 3A4 [4]): 28.2 µM (inconclusive)
- AC50 (Cytochrome P450 2C9): inconclusive

Structure (SMILES): CCOP(=O)(OCC)c1nc(/C=C/c2ccccc2)oc1NCc1ccc(OC)cc1
- IC50 (Aminopeptidase N): 128 µM (active)

Structure (SMILES): O=C(CN1CCC(NC(=O)c2cccc(F)c2)CC1)NCc1cccs1
- IC50 (Aminopeptidase N): 22.6 µM (active)

Structure (SMILES): C=CCN1C(=O)NC(=O)/C(=C/c2ccc(OCC(=O)Nc3ccc(C)cc3)cc2)C1=O
- EC50 [2]: > 300 µM (not active)
- EC50 [3]: > 300 µM (not active)

Structure (SMILES): N#Cc1ccc(C23CC4(C2)[C@H](CN(CC2CCCCC2)[C@@H]4c2ccccc2)C3c2ccc(Cl)nc2)cc1 (some centres not stated)
- AC50 (Cytochrome P450 3A4 [1]): 15.8 µM (inconclusive)

Structure (SMILES): C=C(C(=O)c1ccccc1)C(C)CC(=O)c1ccccc1 (configuration not stated)
- EC50 [5]: 5.17 µM (active)
- EC50 [6]: 4.74 µM (active)

Structure (SMILES): O=C(C[S+]([O-])c1cccc(C(F)(F)F)c1)Nc1ccccc1Cl (configuration not stated)
- AC50 (Cytochrome P450 1A2): 15.8 µM (inconclusive)
- AC50 (Cytochrome P450 2C9): inconclusive

Structure (SMILES): CCn1c(SCC(=O)Nc2cc(C)on2)nnc1-c1ccc(OC)cc1
- EC50 [2]: > 300 µM (not active)
- EC50 [3]: > 300 µM (not active)

Structure (SMILES): COc1ccc2c(c1OC)C(=O)OC2Nc1nc(-c2cc3ccccc3oc2=O)cs1 (configuration not stated)
- IC50 (Leucine aminopeptidase): 5.03 µM (active)

Structure (SMILES): COC(=O)CCCCCN1C(=O)NC(CC2CC2)C(C(=O)OCc2ccccc2)=C1C (configuration not stated)
- AC50 (Cytochrome P450 3A4 [1]): 20 µM (inconclusive)

Structure (SMILES): Cc1ccccc1NS(=O)(=O)c1cc(C(=O)N2CCCC2)ccc1C
- EC50 [2]: > 300 µM (not active)
- EC50 [3]: > 300 µM (not active)

Structure (SMILES): Cc1cccc(NS(=O)(=O)c2ccc3c(c2)Cc2cc(S(=O)(=O)Nc4cccc(C)c4C)ccc2-3)c1C
- EC50 [5]: 11 µM (active)
- EC50 [6]: 10.2 µM (active)

Structure (SMILES): Nc1n[nH]c(N)c1N=Nc1ccc(Cl)cc1
- IC50 (Leucine aminopeptidase): 12.5 µM (active)

Structure (SMILES): COCc1cc(O)n2nc(-c3cccs3)cc2n1
- EC50 [2]: > 300 µM (not active)
- EC50 [3]: > 300 µM (not active)

Structure (SMILES): COc1ccc(-c2nnc(SCc3cccc(C)c3)n2N)cc1
- AC50 (Cytochrome P450 2C9): inconclusive

Structure (SMILES): O=C(N/N=C\c1ccc2c(c1)CCC2)c1ccccc1O
- AC50 (Cytochrome P450 2C19): 0.251 µM (inconclusive)
- AC50 (Cytochrome P450 2D6): 5.01 µM (inconclusive)
- AC50 (Cytochrome P450 2C9): inconclusive

Structure (SMILES): CCOCCCNC(=O)C1CCN(S(=O)(=O)N2CC(C)CC(C)C2)CC1 (configuration not stated)
- AC50 (Cytochrome P450 3A4 [4]): 15.8 µM (inconclusive)
- AC50 (Cytochrome P450 2C9): inconclusive

Structure (SMILES): COc1ccc2c(c1[N+](=O)[O-])CCC/C2=N/OC(=O)c1ccccc1SC
- AC50 (Cytochrome P450 3A4 [4]): 15.8 µM (inconclusive)
- AC50 (Cytochrome P450 2C9): inconclusive

Structure (SMILES): O=C1c2c(O)cc(O)cc2OC(c2ccc(O)c(O)c2)C1O (configuration not stated) [TAXIFOLIN]
- AC50 (Cytochrome P450 3A4 [1]): 25.1 µM (inconclusive)
